# Results reported in patent US12275731B2, “Azaindole inhibitors of wild-type and mutant forms of LRRK2” (DANA-FARBER CANCER INSTITUTE, INC., priority 2018, dated 2025).
# How the values were obtained:
# Test in all cases: KinomeScan profiling
# Type in all cases: binding
# ERN1 = ERN1 (Homo sapiens, UniProt O75460); conditions: ERN1, 1 μM; read-out: % control
# Summary of the method: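 Single-point competition binding screen: 1 μM, DMSO, 468 kinases. Results reported as % control from RLU, normalised to DMSO and positive-control wells. Activity threshold: <35% control.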
# HPK1 = HPK1 (Homo sapiens, UniProt Q92918); conditions: HPK1, 1 μM; read-out: % control
# HPK1, sequence (Q92918 whole entry): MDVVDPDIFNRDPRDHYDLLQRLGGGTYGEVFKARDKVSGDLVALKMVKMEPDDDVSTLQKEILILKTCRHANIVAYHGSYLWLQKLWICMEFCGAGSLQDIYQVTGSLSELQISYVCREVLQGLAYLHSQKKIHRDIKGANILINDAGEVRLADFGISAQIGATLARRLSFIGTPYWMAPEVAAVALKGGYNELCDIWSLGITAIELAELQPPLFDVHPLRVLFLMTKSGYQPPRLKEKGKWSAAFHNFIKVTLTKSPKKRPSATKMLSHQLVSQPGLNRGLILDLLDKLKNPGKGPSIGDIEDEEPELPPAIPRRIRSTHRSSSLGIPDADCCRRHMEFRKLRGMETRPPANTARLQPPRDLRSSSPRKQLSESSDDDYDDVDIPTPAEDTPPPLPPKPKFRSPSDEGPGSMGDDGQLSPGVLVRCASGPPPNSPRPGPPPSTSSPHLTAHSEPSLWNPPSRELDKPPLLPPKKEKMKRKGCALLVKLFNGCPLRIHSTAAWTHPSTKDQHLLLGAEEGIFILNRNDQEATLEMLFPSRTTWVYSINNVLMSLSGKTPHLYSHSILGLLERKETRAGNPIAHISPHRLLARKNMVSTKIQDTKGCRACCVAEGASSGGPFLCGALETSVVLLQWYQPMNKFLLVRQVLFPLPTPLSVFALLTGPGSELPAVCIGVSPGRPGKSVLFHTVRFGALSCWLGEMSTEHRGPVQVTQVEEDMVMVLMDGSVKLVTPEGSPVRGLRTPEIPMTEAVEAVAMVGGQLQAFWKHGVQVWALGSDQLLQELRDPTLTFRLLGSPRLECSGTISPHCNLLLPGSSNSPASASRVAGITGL
# Summary of the method: (§1)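 Selectivity was assessed by binding competition at 1 μM against 468 kinases. Values below 35% of control define an interaction.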
# FGFR1 = FGFR1 (Homo sapiens, UniProt P11362); conditions: FGFR1, 1 μM; read-out: % control
# FGFR1, sequence (P11362 22-822): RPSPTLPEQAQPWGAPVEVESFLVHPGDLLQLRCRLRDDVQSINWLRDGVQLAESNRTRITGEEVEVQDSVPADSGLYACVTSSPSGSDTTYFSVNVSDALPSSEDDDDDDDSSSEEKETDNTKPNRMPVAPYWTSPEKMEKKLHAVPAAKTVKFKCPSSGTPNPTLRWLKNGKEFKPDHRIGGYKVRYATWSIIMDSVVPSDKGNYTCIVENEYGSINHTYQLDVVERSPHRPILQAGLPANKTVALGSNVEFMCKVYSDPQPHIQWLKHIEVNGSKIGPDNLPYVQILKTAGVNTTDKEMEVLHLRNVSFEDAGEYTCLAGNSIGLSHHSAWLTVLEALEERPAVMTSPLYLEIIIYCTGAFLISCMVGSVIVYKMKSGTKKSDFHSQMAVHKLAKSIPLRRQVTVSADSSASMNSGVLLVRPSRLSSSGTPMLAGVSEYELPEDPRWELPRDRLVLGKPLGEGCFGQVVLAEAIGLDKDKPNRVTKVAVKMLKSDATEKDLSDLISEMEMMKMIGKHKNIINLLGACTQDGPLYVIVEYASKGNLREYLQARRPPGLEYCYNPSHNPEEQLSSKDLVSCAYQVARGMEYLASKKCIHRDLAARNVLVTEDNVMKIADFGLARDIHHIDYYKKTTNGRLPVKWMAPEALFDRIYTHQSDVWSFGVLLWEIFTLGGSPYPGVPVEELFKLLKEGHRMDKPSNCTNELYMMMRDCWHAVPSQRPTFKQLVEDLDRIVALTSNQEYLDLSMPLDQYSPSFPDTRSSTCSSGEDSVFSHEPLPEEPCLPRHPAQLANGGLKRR
# Summary of the method: as §1
# MAP4K2 = biological target: T1, MAP4K2 (Homo sapiens, UniProt Q12851); conditions: MAP4K2, 1 μM; read-out: % control
# T1 sequence (Q12851 1-820): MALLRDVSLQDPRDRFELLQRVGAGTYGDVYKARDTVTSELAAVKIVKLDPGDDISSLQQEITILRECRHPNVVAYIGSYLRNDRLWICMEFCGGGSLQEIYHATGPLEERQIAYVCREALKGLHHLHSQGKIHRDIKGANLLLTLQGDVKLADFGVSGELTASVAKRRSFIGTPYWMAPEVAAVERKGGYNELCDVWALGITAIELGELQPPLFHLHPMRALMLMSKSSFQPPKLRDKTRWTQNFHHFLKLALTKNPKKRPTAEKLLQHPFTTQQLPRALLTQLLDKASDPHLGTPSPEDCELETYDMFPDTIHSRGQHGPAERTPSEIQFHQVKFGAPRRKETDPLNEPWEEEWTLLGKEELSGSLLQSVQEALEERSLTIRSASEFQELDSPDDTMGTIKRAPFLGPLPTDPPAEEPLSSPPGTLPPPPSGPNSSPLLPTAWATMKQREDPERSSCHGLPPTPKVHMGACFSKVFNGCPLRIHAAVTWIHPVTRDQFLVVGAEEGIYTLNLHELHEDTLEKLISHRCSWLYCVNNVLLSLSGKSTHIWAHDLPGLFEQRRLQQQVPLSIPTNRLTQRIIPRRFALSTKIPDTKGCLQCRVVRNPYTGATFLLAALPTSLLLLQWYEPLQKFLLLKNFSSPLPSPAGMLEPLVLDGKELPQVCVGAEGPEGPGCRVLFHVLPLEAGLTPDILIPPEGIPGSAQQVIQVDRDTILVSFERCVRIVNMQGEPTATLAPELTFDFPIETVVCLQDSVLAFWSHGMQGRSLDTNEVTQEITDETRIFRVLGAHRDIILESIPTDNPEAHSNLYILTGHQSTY
# Summary of the method: as §1
# AMPK-alpha1 = biological target: T2, AMPK-alpha1 (Homo sapiens, UniProt Q13131); conditions: AMPK-alpha1, 1 μM; read-out: % control
# T2 construct: purchased KinomeScan®
# T2 sequence (Q13131 whole entry): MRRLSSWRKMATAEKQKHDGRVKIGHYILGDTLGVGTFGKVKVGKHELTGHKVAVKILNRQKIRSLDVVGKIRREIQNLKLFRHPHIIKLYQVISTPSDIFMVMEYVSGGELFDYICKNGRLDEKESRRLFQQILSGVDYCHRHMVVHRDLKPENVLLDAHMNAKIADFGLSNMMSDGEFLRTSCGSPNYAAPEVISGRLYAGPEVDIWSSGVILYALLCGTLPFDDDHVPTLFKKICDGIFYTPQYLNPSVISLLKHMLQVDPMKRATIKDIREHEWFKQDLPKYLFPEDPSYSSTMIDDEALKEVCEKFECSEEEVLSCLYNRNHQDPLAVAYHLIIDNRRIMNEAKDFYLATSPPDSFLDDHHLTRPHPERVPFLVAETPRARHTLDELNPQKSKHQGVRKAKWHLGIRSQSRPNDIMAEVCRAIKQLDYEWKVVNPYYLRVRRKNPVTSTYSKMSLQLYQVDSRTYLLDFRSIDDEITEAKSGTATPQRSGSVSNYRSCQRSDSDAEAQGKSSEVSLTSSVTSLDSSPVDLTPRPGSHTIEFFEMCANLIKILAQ
# Summary of the method: as §1
# ITK = biological target: T3, ITK (Homo sapiens, UniProt Q08881); conditions: read-out: % control
# T3 construct: purchased KinomeScan®
# T3 sequence (Q08881 1-620): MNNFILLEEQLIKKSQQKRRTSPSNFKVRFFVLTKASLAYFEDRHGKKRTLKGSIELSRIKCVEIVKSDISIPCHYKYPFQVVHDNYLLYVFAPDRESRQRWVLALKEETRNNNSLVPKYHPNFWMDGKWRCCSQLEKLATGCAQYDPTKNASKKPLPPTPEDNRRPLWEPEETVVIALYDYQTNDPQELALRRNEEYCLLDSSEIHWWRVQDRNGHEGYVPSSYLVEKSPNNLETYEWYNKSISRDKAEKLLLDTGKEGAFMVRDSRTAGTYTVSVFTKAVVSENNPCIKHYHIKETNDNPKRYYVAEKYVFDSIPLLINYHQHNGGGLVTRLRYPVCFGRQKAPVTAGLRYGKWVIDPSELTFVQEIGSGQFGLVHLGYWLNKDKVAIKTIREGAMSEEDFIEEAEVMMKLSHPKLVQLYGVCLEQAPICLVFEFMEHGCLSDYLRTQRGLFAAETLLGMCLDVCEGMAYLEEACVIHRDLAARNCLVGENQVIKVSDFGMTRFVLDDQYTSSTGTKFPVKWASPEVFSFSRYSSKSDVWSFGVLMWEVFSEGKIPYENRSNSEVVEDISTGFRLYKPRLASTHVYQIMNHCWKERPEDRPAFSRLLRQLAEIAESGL
# Summary of the method: as §1
# [1] = biological target: T4, ABL1(T315I)-phosphorylated (Homo sapiens, UniProt P00519, T315I); conditions: read-out: % control
# T4 construct: purchased KinomeScan®
# Summary of the method: as §1
# FYN = FYN (Homo sapiens, UniProt P06241); conditions: read-out: % control
# FYN, sequence (P06241 whole entry): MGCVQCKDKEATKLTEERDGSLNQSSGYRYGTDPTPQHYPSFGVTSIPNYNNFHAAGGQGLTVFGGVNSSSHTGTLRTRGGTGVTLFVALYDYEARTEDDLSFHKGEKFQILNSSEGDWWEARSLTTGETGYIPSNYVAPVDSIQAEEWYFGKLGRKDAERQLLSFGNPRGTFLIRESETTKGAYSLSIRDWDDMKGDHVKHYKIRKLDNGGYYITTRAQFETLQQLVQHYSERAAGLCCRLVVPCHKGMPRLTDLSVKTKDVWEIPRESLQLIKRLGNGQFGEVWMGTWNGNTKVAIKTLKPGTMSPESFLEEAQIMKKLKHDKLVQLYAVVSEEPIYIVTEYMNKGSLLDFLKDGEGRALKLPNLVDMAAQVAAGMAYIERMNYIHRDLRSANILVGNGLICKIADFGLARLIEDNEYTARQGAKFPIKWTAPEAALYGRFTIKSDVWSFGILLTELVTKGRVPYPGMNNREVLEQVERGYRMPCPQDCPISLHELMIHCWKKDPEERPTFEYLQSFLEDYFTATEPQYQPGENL
# Summary of the method: as §1
# TLK1 = biological target: T5, TLK1 (Homo sapiens, UniProt Q9UKI8); conditions: TLK1, 1 μM; read-out: % control
# T5 sequence (Q9UKI8 1-766): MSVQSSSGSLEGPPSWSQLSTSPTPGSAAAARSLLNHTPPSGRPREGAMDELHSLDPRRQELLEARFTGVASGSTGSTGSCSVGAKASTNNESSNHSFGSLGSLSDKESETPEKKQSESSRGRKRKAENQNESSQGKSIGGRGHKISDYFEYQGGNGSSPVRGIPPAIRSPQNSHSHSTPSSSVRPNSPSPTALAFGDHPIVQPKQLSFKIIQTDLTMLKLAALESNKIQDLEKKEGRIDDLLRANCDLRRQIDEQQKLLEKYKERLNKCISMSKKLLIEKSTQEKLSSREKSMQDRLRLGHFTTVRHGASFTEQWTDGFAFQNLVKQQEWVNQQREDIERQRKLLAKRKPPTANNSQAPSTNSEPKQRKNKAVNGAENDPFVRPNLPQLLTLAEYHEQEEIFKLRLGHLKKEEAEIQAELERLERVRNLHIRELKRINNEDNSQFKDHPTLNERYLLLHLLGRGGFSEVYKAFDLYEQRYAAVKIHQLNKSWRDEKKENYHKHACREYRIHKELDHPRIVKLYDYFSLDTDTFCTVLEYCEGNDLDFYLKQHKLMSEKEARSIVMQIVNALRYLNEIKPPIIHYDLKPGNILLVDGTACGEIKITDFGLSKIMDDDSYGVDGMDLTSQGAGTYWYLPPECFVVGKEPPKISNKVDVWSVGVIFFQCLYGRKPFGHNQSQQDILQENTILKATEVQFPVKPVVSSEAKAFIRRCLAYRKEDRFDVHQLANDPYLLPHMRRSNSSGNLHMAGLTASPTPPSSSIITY
# Summary of the method: as §1
# ERN1, sequence (O75460 19-977): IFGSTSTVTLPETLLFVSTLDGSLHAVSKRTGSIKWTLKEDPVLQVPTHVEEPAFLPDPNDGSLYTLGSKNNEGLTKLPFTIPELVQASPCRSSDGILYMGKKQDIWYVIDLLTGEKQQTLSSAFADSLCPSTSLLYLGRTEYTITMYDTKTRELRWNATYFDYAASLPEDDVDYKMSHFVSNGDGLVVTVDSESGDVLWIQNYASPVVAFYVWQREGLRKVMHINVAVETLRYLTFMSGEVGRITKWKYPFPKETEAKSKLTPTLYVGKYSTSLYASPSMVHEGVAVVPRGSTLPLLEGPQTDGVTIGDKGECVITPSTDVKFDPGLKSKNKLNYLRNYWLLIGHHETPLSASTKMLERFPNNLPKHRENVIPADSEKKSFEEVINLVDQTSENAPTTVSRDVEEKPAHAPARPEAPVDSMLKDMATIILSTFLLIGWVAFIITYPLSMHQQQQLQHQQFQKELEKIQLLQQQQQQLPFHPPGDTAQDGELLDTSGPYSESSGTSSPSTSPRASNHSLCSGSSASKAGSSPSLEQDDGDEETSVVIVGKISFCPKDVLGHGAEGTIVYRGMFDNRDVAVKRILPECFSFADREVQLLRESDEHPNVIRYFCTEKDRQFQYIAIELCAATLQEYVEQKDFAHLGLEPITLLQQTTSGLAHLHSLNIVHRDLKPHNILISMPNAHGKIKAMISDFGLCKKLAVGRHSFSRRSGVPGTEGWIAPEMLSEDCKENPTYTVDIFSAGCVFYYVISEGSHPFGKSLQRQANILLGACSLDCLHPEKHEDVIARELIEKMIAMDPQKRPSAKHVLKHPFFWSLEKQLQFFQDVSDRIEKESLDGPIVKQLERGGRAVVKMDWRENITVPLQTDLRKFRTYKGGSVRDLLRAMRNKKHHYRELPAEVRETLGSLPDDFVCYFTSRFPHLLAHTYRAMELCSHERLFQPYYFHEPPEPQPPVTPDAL
Compound,remaining binding at 1 µM (ERN1) [%],remaining binding at 1 µM (HPK1) [%],remaining binding at 1 µM (FGFR1) [%],remaining binding at 1 µM (MAP4K2) [%],remaining binding at 1 µM (AMPK-alpha1) [%],remaining binding at 1 µM (ITK) [%],remaining binding at 1 µM [1] [%],remaining binding at 1 µM (FYN) [%],remaining binding at 1 µM (TLK1) [%]
"CNc1c(-c2ccc(C(=O)N3CCC(N4CCOCC4)CC3)cc2)cnc2[nH]cc(Cl)c12 [Compound 96, (4-(3-chloro-4-(methylamino)-1H-pyrrolo[2,3-b]pyridin-5-yl)phenyl)(4-morpholinopiperidin-1-yl)methanone]",73,84,85,1.1,75,93,52,96,95
"O=C(c1ccc(-c2cnc3[nH]cc(Cl)c3c2NC2CCCC2)cc1)N1CCC(N2CCOCC2)CC1 [Compound 101, (4-(3-chloro-4-(cyclopentylamino)-1H-pyrrolo[2,3-b]pyridin-5-yl)phenyl)(4-morpholinopiperidin-1-yl)methanone]",86,53,77,20,78,90,95,87,90
"CNc1c(-c2cnn([C@H]3CCN(C(C)=O)C[C@@H]3F)c2)cnc2[nH]cc(Cl)c12 [Compound 77, 1-((3S,4S)-4-(4-(3-chloro-4-(methylamino)-1H-pyrrolo[2,3-b]pyridin-5-yl)-1H-pyrazol-1-yl)-3-fluoropiperidin-1-yl)ethan-1-one]",56,6.7,87,20,100,71,31,94,95
